Measurements as given in article PMC8388802, “Study on the Structure-Activity Relationship of an Antimicrobial Peptide, Brevinin-2GUb, from the Skin Secretion of Hylarana guentheri” (Antibiotics, 2021).
In brackets after ≈: the same amount, converted by molar mass. Where a SMILES comes first, the peptide text is derived from it. Where no end group is shown, it is not given here.

Assays:
S. aureus (ATCC 6538) = type: cell-based, Staphylococcus aureus
Description: (§1) The method of antimicrobial assay is based on the Methods for Dilution Antimicrobial Susceptibility Tests for Bacteria that Grow Aerobically from the Clinical and Laboratory Standards Institute (CLSI).The antimicrobial activities of peptides were evaluated against Gram-positive bacteria S. aureus (ATCC 6538), MRSA (NCTC 12493), E. faecalis (NCTC 12493), Gram-negative bacteria E. coli (ATCC CRM 8739), K. pneumoniae (ATCC 43816), P. aeruginosa (ATCC CRM 9027), yeast C. albicans (ATCC CRM 10231) and clinical isolates MRSA (B042 V2E1 A), E. coli (ATCC BAA-2340), K. pneumoniae (ATCC BAA-1705), P. aeruginosa (B004 V2S2 B).
(§2) At the first stage of the assay, 20 μL bacteria were cultured in 100 mL Mueller Hinton Broth (MHB) or Yeast Extract–Peptone–Dextrose broth (YPD-B), respectively, and was incubated overnight. Then, microorganisms were subcultured in 20 mL fresh MHB or YPD-B to achieve cultures in the logarithmic phase (1 × 10^8 CFU/mL), which can be verified by optical density (OD) (The OD of Gram-positive bacteria is 0.23, OD of Gram-negative bacteria is 0.4, and OD of yeast is 0.15), and viable cell counts. Then, the medium was used to dilute the cultures to specific cell densities (Gram-negative and Gram-positive bacteria: 5 × 10^5 CFU/mL; yeast: 1 × 10^6 CFU/mL), which were the final concentrations of bacterial suspensions used in the assay. The peptides were dissolved in DMSO to reach a final concentration of 512 µM. A series of two-fold dilutions ranging from 512 µM to 1 µM were dosed in the 96-well plates.
(§3) Antimicrobial assays were conducted in 96-well plates, which were divided into five groups, including a negative control group (PBS), a positive control group (20 μg/mL norfloxacin for bacteria and 10 μg/mL amphotericin B for yeast), vehicle control (1% DMSO), blank control (MHB or YPD-B), and a peptide group. Each microorganism had five repetitions, and each well contained 1 µL corresponding solution and 99 µL culture. After incubation at 37 °C overnight, the absorbance of each well was tested by a microplate reader (EL808, Biolise BioTek Winooski, Minneapolis, USA) under a 550 nm wavelength. The MIC is the lowest concentration at which no bacterial growth can be observed.
(§4) The next day, 10 µL of every clear well was taken out to be cultured on a Mueller Hinton Agar (MHA) plate and incubated at 37 °C for 16–20 h. The MBC is the lowest concentration without any bacterial colonies, which means at this concentration, the peptide reduces the viability of the pathogen by more than 99.9%.

[1] = tested on: C. albicans (ATCC CRM 10231); type: cell-based, Candida albicans
Description: as §1, §2, §3, §4

E. faecalis (NCTC 12493) = type: cell-based, Enterococcus faecalis
Description: as §1, §2, §3, §4

MRSA (B042 V2E1 A) = type: cell-based, Methicillin-resistant Staphylococcus aureus
Description: as §1, §2, §3, §4

MRSA (NCTC 12493) = type: cell-based, Methicillin-resistant Staphylococcus aureus
Description: as §1, §2, §3, §4

E. coli (ATCC BAA-2340) = type: cell-based, Escherichia coli
Description: as §1, §2, §3, §4

E. coli (ATCC CRM 8739) = type: cell-based, Escherichia coli
Description: as §1, §2, §3, §4

[2] = tested on: P. aeruginosa (ATCC CRM 9027); type: cell-based, Pseudomonas aeruginosa
Description: as §1, §2, §3, §4

[3] = tested on: P. aeruginosa (B004 V2S2 B); type: cell-based, Pseudomonas aeruginosa
Description: as §1, §2, §3, §4

[4] = tested on: K. pneumoniae (ATCC 43816); type: cell-based, Klebsiella pneumoniae
Description: as §1, §2, §3, §4

[5] = tested on: K. pneumoniae (ATCC BAA-1705); type: cell-based, Klebsiella pneumoniae
Description: as §1, §2, §3, §4

[6] = tested on: S. aureus (ATCC 6538) biofilm; type: cell-based, Staphylococcus aureus; details: ATCC 6538, 24 h
Description: (§5) The anti-biofilm activities of the peptides against S. aureus (ATCC 6538), MRSA (NCTC 12493), E. faecalis (NCTC 12493), E. coli (ATCC CRM 8739), K. pneumoniae (ATCC 43816), and P. aeruginosa (ATCC CRM 9027) were evaluated.
(§6) The bacteria were inoculated in a different medium (Gram-positive bacteria were in TSB and Gram-negative bacteria were in LB) overnight, and the subculture was conducted in the same medium. When the bacteria reached a specific density, 100 µL of the dilution was added to each well of the 96-well microplate. Then 1 µL of peptide at a series of concentrations, the same concentration in the antimicrobial assay, were added into the well together with the bacteria. The plates were put into a moist shaking incubator with a speed of 200 rpm, and the temperature was set at 37 ℃. After a 24-h incubation, the liquid in the wells was aspirated, and each was washed twice by 100 µL PBS. One hundred µL of methanol were added into each well to stabilise the biofilm. After air-drying, 100 µL crystal violet was used to dye the biofilm, and they were dissolved in the 100 µL glacial acidic acid after drying. The solutions were transferred to a new microplate, and the absorbance of each well was tested by a microplate reader (EL808, Biolise BioTek Winooski, Minneapolis, MN, USA) at 595 nm wavelength. MBIC was the minimum concentration of the peptide showing no biofilm formation.
(§7) The bacteria were inoculated in a different medium (Gram-positive bacteria were in TSB and Gram-negative bacteria were in LB) overnight, and the subculture was conducted in the same medium. When the bacteria reached a specific density, 100 µL of the dilution was added to each well of the 96-well microplates. The plates were put into a moist shaking incubator with a speed of 200 rpm and the temperature was 37 ℃. After a 24 h incubation, the liquid in the wells was aspirated and they were washed twice by 100 µL PBS of each well. The peptides with the same concentrations were diluted in the corresponding medium and 100 µL were added into each well. After a 24-h incubation, the liquid in the wells was aspirated and they were washed twice by 100 µL PBS. One hundred µL of methanol were added into the wells to stabilise the biofilms. After being air-dried, 100 µL crystal violet was used to dye the biofilm, and they were dissolved in the 100 µL glacial acidic acid after drying. The solutions were transferred to a new microplate, and the absorbance of each well was tested by a microplate reader (EL808, Biolise BioTek Winooski, Minneapolis, USA) at 595 nm wavelength.

[7] = tested on: E. coli (ATCC CRM 8739) biofilm; type: cell-based, Escherichia coli; details: ATCC CRM 8739, 24 h
Description: as §5, §6, §7

[8] = tested on: K. pneumoniae (ATCC 43816) biofilm; type: cell-based, Klebsiella pneumoniae; details: ATCC 43816, 24 h
Description: as §5, §6, §7

[9] = tested on: P. aeruginosa (ATCC CRM 9027) biofilm; type: cell-based, Pseudomonas aeruginosa; details: ATCC CRM 9027, 24 h
Description: as §5, §6, §7

[10] = tested on: MRSA (NCTC 12493) biofilm; type: cell-based, Methicillin-resistant Staphylococcus aureus; details: NCTC 12493, 24 h
Description: as §5, §6
The bacteria were inoculated in a different medium (Gram-positive bacteria were in TSB and Gram-negative bacteria were in LB) overnight, and the subculture was conducted in the same medium. When the bacteria reached a specific density, 100 µL of the dilution was added to each well of the 96-well microplates. The plates were put into a moist shaking incubator with a speed of 200 rpm and the temperature was 37 ℃. […] The solutions were transferred to a new microplate, and the absorbance of each well was tested by a microplate reader (EL808, Biolise BioTek Winooski, Minneapolis, USA) at 595 nm wavelength.

[11] = tested on: E. faecalis (NCTC 12493) biofilm; type: cell-based, Enterococcus faecalis; details: NCTC 12493, 24 h
Description: as §5, §6, §7

[12] = tested on: wax moth (Galleria mellonella); assay: Toxicity of peptides to waxworms; type: in vivo; details: uninfected waxworms, when the concentration reached 15 mg/kg
[13] = tested on: enteroaggregative E. coli; details: cited from earlier work
Excerpt: Due to the influence of physiological factors, there may be some difference between the antimicrobial activity in vitro and in vivo [41]. Consistent with the haemolysis assay and cytotoxicity assay results, Brevinin-2GUb is much harmful to the wax moth than tB2U-K and tB2U-6K. […] In our study, with the increase of the number of net charges, the survival rate of E. coli-infected wax moth is enhanced and the ability o ...

## CC[C@H](C)[C@H](NC(=O)[C@@H](NC(=O)CN)C(C)C)C(=O)N[C@H](C(=O)N[C@@H](CC(=O)O)C(=O)N[C@H](C(=O)N[C@@H](CC(C)C)C(=O)N[C@@H](CCCCN)C(=O)NCC(=O)N[C@@H](C)C(=O)N[C@@H](C)C(=O)N[C@@H](CCCCN)C(=O)N[C@H](C(=O)N[C@H](C(=O)N[C@@H](C)C(=O)N[C@@H](C)C(=O)N[C@@H](CCC(=O)O)C(=O)N[C@@H](CC(C)C)C(=O)N[C@@H](CC(C)C)C(=O)N[C@@H](CCCNC(=N)N)C(=O)N[C@@H](CCCCN)C(=O)N[C@@H](C)C(=O)N[C@@H](Cc1c[nH]cn1)C(=O)N[C@H]1CSSC[C@@H](C(=O)O)NC(=O)[C@H](CO)NC(=O)[C@H](CC(N)=O)NC(=O)[C@H]([C@@H](C)O)NC(=O)[C@H](CC(C)C)NC(=O)[C@H](CCCCN)NC1=O)C(C)C)[C@@H](C)O)[C@@H](C)O)[C@@H](C)CC [Brevinin-2GUb] (HELM PEPTIDE1{G.V.I.I.D.T.L.K.G.A.A.K.T.V.A.A.E.L.L.R.K.A.H.C.K.L.T.N.S.C}$PEPTIDE1,PEPTIDE1,24:R3-30:R3$$$V2.0)
S. aureus (ATCC 6538)
  MBC: 32 µM (≈ 100 µg/mL)
  MIC: 32 µM (≈ 100 µg/mL)
[1]
  MBC: >512 µM
  MIC: >512 µM
E. faecalis (NCTC 12493)
  MBC: >512 µM
  MIC: >512 µM
MRSA (B042 V2E1 A)
  MBC: >512 µM
  MIC: >512 µM
MRSA (NCTC 12493)
  MBC: >512 µM
  MIC: >512 µM
E. coli (ATCC BAA-2340)
  MBC: 32 µM (≈ 100 µg/mL)
  MIC: 32 µM (≈ 100 µg/mL)
E. coli (ATCC CRM 8739)
  MBC: 16 µM (≈ 50 µg/mL)
  MIC: 16 µM (≈ 50 µg/mL)
[2]
  MBC: 512 µM (≈ 1600 µg/mL)
  MIC: 128 µM (≈ 400 µg/mL)
[3]
  MBC: >512 µM
  MIC: >512 µM
[4]
  MBC: 128 µM (≈ 400 µg/mL)
  MIC: 128 µM (≈ 400 µg/mL)
[5]
  MBC: 512 µM (≈ 1600 µg/mL)
  MIC: 512 µM (≈ 1600 µg/mL)
[6]
  MBEC: > 512 µM
  MBIC: 256 µM
[7]
  MBEC: > 512 µM
  MBIC: 128 µM
[8]
  MBEC: >512 µM
  MBIC: >512 µM
[9]
  MBEC: >512 µM
  MBIC: >512 µM
[10]
  MBIC: 256 µM
[11]
  MBEC: >512 µM
  MBIC: >512 µM
[12]
  toxicity to waxworms: modest toxicity

## Indolicidin (ILPWKWPWWPWRR; ends and bridges not checked; UniProt P33046 131-143, looked up) [antimicrobial peptide of a previous study in Galleria mellonella]
[13]
  survival rate of Galleria mellonella infected by the enteroaggregative E. coli: up to 95%
